Drawing on ChEMBL document CHEMBL5465560, “Selectivity Literature for EUbOPEN Chemogenomic Library” (2024), this text covers % of inhibition, % of control and % of engagement for 9 compounds.

Assay [1] concerns the target Serine/threonine-protein kinase B-raf (Homo sapiens) (UniProt P15056). Briefly: Selectivity interaction (Kinase panel (Eurofins)) EUB0001564a BRAF. The following applies: at 1 µM.
Assay [2] concerns the target Cyclin-dependent kinase 4/cyclin D1 (Homo sapiens) (UniProt P11802+P24385). Briefly: (§1) Selectivity interaction (KinomeScan (DiscoverX)) EUB0000595a CDK4. The settings on record: at 10 µM. The class given is protein-complex assay.
The target of assay [3] is CDK4/Cyclin D3 (Homo sapiens) (UniProt P11802+P30281). The assay is described as §1. The class given is protein-complex assay. The following applies: at 10 µM.
The target of assay [4] is Vascular endothelial growth factor receptor 2 (Homo sapiens, UniProt P35968). Briefly: Selectivity interaction (KinomeScan (DiscoverX)) EUB0000595a KDR. The settings on record: at 10 µM.
Vascular endothelial growth factor receptor 2, sequence (P35968 whole entry): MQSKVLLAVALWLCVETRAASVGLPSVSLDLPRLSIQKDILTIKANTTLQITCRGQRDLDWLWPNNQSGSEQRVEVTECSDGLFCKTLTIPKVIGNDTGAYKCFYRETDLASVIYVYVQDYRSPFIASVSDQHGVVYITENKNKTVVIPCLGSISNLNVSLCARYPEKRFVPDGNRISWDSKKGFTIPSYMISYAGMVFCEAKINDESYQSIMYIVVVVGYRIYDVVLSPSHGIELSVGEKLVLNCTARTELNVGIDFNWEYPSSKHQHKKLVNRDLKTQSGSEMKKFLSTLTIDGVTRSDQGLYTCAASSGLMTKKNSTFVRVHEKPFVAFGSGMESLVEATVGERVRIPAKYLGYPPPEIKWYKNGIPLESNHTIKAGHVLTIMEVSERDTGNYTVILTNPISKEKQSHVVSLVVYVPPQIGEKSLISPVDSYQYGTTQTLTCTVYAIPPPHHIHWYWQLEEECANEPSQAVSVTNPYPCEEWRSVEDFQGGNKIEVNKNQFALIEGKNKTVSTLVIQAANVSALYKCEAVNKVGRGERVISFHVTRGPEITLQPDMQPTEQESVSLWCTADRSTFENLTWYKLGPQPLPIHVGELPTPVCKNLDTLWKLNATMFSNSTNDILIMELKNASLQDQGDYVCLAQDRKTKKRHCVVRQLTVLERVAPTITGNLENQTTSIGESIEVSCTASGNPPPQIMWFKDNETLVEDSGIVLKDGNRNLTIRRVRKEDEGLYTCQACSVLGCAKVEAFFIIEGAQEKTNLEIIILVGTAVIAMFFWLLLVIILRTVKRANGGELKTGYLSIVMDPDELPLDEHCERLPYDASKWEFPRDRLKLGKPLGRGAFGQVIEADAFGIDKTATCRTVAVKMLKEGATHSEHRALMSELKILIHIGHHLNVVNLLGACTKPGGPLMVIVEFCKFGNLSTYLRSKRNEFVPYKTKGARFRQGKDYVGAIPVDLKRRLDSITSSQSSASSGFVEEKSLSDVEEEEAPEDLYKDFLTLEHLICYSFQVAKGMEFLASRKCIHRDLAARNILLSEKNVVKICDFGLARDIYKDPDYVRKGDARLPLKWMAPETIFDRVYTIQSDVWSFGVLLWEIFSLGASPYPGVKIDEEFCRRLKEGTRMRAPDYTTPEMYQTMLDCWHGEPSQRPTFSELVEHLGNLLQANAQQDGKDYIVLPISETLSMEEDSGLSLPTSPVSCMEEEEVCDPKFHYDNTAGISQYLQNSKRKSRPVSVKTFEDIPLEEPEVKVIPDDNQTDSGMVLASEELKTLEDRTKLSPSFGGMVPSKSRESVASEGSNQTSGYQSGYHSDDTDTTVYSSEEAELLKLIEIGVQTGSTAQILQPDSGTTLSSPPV
The target in assay [5] is T1, Alpha-1A adrenergic receptor (Homo sapiens) (UniProt P35348).
T1 sequence (whole entry): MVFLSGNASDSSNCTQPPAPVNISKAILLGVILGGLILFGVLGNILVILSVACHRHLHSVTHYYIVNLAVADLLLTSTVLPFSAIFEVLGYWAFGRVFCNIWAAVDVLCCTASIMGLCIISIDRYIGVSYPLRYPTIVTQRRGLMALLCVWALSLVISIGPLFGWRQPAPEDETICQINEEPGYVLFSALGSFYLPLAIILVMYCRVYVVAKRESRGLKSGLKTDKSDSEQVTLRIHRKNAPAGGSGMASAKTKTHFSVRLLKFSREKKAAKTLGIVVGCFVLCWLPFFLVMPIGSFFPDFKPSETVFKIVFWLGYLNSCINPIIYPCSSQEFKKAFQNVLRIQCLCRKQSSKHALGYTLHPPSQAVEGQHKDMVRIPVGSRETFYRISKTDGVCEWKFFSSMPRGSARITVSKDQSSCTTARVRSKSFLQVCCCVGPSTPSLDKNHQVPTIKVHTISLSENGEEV
Briefly: Selectivity interaction (Eurofins CEREP Diversity Profile (receptors and ion channels)) EUB0000279b ADRA1A. The settings on record: at 10 µM.

Assay [6] addresses T2, Dual specificity mitogen-activated protein kinase kinase 4 (Homo sapiens) (UniProt P45985).
T2 sequence (whole entry): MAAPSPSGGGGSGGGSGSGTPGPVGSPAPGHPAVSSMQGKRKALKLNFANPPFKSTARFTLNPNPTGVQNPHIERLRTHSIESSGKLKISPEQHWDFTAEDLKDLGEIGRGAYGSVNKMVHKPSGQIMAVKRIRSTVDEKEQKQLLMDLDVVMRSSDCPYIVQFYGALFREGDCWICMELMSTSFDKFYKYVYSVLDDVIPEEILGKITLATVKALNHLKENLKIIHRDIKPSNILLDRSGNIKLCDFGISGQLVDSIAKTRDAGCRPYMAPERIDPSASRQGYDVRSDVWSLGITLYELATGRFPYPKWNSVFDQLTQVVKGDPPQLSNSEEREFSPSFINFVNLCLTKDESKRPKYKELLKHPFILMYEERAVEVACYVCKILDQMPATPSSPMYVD
The following applies: at 10 µM.

Assay [7] has as its target Serine/threonine-protein kinase OSR1 (Homo sapiens) (UniProt O95747). The experiment in a line: Selectivity interaction (KinomeScan (DiscoverX)) EUB0000655a OXSR1. The following applies: at 10 µM.
Assay [8] deals with Mitogen-activated protein kinase 9 (Homo sapiens, UniProt P45984). The experiment in a line: Selectivity interaction (KinomeScan (DiscoverX)) EUB0000618a MAPK9. The following applies: at 10 µM.
Mitogen-activated protein kinase 9, sequence (P45984 whole entry, looked up): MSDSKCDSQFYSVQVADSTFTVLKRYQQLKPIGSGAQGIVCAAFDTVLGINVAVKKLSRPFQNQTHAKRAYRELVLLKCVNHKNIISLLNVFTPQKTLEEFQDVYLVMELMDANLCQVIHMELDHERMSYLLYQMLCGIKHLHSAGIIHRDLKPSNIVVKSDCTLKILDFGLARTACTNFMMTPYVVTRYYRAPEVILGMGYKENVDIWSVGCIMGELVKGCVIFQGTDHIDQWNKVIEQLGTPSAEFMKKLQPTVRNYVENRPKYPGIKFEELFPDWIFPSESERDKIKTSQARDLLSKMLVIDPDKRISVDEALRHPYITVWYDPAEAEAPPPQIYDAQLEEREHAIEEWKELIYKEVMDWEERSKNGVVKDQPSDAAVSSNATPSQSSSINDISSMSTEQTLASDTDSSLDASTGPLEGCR
Assay [9] has as its target Serine/threonine-protein kinase 32B (Homo sapiens) (UniProt Q9NY57). The experiment in a line: Selectivity interaction (KinomeScan (DiscoverX)) EUB0000092b STK32B. The settings on record: at 10 µM.
Assay [10] addresses T3, Serine/threonine-protein kinase TBK1 (Homo sapiens) (UniProt Q9UHD2).
T3 sequence (whole entry): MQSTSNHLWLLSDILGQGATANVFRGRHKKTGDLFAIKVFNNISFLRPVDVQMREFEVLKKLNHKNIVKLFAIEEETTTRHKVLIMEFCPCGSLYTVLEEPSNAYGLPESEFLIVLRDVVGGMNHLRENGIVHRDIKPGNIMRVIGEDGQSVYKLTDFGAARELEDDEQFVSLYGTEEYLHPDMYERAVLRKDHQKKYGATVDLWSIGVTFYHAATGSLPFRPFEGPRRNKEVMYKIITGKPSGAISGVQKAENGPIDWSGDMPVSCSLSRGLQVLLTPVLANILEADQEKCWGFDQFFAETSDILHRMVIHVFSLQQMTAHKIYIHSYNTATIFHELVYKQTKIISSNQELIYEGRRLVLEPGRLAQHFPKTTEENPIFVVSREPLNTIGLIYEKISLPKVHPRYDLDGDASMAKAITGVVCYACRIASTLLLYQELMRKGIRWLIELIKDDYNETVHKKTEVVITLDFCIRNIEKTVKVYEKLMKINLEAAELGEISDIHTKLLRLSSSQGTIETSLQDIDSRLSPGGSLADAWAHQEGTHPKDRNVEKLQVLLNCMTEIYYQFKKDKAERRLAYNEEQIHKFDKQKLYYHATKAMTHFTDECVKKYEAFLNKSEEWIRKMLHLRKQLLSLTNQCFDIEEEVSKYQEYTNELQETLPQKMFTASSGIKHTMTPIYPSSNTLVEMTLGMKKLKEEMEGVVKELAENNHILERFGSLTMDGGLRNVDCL
The experiment in a line: Selectivity interaction (KinomeScan (DiscoverX)) EUB0001079a TBK1. The settings on record: at 1 µM.

Assay [11] has as its target LIM domain kinase 1 (Homo sapiens) (UniProt P53667). Briefly: Selectivity interaction (KinomeScan (DiscoverX)) EUB0001079a LIMK1. The following applies: at 1 µM.
For assay [12], the target named is T4, Mitogen-activated protein kinase 13 (Homo sapiens) (UniProt O15264).
T4 sequence (whole entry): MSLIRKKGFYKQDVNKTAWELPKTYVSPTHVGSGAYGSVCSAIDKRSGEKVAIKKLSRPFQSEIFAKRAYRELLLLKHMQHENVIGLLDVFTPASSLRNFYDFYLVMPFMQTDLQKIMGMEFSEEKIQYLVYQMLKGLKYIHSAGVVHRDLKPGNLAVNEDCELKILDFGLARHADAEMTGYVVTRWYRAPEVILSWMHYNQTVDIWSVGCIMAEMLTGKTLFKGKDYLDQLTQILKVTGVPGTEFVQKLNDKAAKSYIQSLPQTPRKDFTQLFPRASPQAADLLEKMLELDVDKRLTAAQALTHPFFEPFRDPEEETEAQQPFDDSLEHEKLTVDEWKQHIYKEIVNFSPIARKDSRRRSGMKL
The experiment in a line: Selectivity interaction (Kinase panel (KiNativ target engagement assay in Jurkat cells)) EUB0001635a MAPK13. The class given is cell-based. The following applies: Selectivity number of off-targets 0.0, Selectivity number of targets 233.0, Source Knowledge https://www.sciencedirect.com/science/article/pii/S2451945619300674?via%3Dihub, at 1 µM.

Each structure is given as a SMILES string.

Serine/threonine-protein kinase B-raf (Homo sapiens), sequence (P15056 whole entry): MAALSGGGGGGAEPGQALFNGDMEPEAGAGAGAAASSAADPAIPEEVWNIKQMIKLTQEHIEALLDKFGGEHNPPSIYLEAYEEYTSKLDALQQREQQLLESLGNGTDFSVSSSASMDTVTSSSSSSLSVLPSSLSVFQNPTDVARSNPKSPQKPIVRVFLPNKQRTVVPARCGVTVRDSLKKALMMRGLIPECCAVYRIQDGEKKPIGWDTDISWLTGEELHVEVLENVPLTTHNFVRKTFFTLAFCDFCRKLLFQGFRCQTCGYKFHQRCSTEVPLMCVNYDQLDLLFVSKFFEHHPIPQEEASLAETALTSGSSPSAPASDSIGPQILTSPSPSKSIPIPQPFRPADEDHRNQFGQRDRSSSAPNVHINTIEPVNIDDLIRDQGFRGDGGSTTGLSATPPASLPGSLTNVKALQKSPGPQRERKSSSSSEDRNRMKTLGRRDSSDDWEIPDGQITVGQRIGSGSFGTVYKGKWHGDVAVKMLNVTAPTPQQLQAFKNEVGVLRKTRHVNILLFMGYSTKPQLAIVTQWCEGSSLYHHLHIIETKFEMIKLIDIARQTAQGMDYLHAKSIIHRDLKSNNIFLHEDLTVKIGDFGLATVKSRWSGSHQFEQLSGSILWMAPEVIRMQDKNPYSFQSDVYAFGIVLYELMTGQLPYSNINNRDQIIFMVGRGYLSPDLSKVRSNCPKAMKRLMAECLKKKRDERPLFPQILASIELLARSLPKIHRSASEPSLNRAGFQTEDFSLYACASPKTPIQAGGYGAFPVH
Serine/threonine-protein kinase OSR1 (Homo sapiens), sequence (O95747 2-527 limits assumed): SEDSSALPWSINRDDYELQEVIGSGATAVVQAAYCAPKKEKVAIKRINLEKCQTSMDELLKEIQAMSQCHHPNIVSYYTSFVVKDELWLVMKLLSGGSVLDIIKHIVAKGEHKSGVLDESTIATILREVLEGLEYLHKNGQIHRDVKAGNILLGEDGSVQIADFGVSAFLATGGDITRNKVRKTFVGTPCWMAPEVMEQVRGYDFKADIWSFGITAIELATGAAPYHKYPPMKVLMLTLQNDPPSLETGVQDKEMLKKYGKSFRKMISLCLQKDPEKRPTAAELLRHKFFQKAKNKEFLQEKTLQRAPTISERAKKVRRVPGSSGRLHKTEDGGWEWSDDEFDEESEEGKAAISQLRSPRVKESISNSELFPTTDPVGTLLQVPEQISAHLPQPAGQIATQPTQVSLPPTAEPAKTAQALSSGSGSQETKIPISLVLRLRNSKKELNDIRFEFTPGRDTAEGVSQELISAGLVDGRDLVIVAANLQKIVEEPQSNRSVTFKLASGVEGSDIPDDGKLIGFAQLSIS
Serine/threonine-protein kinase 32B (Homo sapiens), sequence (Q9NY57 whole entry): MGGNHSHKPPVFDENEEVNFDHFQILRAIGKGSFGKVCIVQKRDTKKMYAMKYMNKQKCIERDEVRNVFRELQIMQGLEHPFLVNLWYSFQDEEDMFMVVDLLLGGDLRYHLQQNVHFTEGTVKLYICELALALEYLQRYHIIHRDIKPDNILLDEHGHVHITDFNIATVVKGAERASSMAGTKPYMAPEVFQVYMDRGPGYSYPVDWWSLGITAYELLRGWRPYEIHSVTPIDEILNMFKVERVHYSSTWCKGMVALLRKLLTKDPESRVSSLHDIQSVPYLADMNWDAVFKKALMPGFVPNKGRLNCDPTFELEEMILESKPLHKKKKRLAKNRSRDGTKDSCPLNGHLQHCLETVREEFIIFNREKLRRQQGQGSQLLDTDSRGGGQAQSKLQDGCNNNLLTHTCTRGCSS
LIM domain kinase 1 (Homo sapiens), sequence (P53667 whole entry, looked up, the tested form may be a part): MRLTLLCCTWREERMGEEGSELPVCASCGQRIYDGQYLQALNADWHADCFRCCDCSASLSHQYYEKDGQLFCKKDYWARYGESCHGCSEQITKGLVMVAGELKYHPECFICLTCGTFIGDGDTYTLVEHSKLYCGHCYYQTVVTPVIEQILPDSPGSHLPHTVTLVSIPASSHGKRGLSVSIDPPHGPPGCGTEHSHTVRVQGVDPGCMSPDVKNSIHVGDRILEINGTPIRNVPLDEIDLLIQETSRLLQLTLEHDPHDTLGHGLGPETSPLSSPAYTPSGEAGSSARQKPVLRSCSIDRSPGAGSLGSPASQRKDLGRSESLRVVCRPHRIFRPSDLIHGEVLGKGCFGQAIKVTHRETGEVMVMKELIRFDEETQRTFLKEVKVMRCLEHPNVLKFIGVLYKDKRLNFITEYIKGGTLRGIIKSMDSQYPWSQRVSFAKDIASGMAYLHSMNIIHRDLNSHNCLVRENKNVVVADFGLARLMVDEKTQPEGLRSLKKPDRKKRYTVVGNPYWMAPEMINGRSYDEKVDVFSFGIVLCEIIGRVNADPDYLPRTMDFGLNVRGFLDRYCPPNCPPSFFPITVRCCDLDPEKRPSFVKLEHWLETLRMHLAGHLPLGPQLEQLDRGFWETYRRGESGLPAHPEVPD

As for `CC[C@@H](Nc1c(C#N)c(-c2ccc(-c3cccc(C)c3F)cc2)nc2cnccc12)C(=O)O` [BAY-091], the % of inhibition in assay [1] stood at 23.5%. In the case of `COCC(=O)NC/C=C/c1ccc2ncnc(Nc3ccc(Oc4ccc(C)nc4)c(C)c3)c2c1` [CP-724714], the % of control in [2], in [3] and in assay [4] was 100% throughout. As for `CC(=O)c1cc(-c2ccccc2OCC2CC2)c2ncccn12`, the % of control in [5] is 94%. For the compound `CCN(CC)CCCCNc1ncc2cc(-c3cc(OC)cc(OC)c3)c(NC(=O)NC(C)(C)C)nc2n1`, the % of control in assay [6] was determined as 100%. Consider `CN(C)CCOc1ccc(-c2nc(-c3ccncc3)c(-c3ccc4c(c3)CC/C4=N\O)[nH]2)cc1`, for which the % of control in assay [7] came to 100%. `O[C@H]1CC[C@H](Nc2ncc3nc(Nc4c(F)cc(F)cc4F)n([C@H]4CCOC4)c3n2)CC1`: the % of control in assay [8] came to 0%. Regarding `CCC(=O)N1CCN(c2ccc(-n3c(=O)ccc4cnc5ccc(-c6cnc7ccccc7c6)cc5c43)cc2C(F)(F)F)CC1`, the % of control in [9] was 87%. Take `Nc1cnc(N2CCc3cc(S(=O)(=O)Nc4c(F)cc(Cl)cc4F)cc(N4CCCC4=O)c32)nc1` [TP-020n]: the % of control in [10] stood at 85%; in assay [11] it was 100%. With `C=CC(=O)Nc1ccc(C(=O)Nc2[nH]nc3c2CN(C(=O)N[C@H](CN(C)C)c2ccccc2)C3(C)C)cc1`, the % of engagement in assay [12] was -10.3%.
